Measurements: patent US20100184809A1, “Heterocyclic FXR Binding Compounds” (PHENEX PHARMACEUTICALS AG, priority 2006, published 2010)

Legend:
[1] = biological target: T1, human FXRalpha ligand binding domain (LBD) (Homo sapiens, UniProt Q96RI1); test: FRET activity assay (ligand mediated cofactor peptide interaction, LANCE); type: biochemical; conditions: GST-FXR-LBD / biotinylated SRC-1 peptide (676-700)
T1 construct: made in house; host or cells: E. coli BL21(DE3), vector pDEST15
T1 sequence (Q96RI1 187-472 isoform Q96RI1-2): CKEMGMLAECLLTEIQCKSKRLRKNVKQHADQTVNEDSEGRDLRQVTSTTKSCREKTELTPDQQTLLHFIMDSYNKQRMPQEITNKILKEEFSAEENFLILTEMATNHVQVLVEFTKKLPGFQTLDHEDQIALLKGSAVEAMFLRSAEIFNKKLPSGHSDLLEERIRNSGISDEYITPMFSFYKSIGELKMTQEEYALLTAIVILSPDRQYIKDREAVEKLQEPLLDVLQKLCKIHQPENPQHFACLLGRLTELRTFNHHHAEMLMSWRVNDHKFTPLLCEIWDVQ
Procedure, shortened: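 GST-tagged human FXRα LBD (aa 187-472) from E. coli, with biotinylated SRC-1 peptide 676-700 (200-600 nM), Eu anti-GST and streptavidin-APC in Tris pH 7.5 buffer, 1% DMSO. One hour at room temperature in the dark, then time-resolved FRET read as the 665/615 nm ratio.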

[2] = Aqueous solubility assay, Protocol A, nephelometry method; type: physicochemical; conditions: PBS with 5% DMSO, aqueous with cosolvent or surfactant or cyclodextrin, kinetic from dmso stock, PBS pH 7.4, 5% DMSO, 23° C., 24 hours, read-out: Aqueous solubility pH 7.4
Method: Aqueous solubility of compounds was determined by nephelometry or by the shake-flask method as follows:
Protocol A, nephelometry method:
Solubility of compounds was measured in PBS (pH 7.4), 5% DMSO at 23° C. Nepheloskan Ascent (Thermo Electron Corporation) nephelometer was used for measurement of light scattering. Tested compounds were dissolved in DMSO to 10 mM. Prior to measurement the compounds were further diluted with PBS in the wells to final compound concentrations of 100, 70, 50, 35, 25, 17, 12 and <10 μg/ml.
The plates were incubated at room temperature for 24 hours to reach equilibrium and the scattered light was measured. Assay validation: Aqueous solubility of acetylsalicylic acid was determined to validate the assay.
The following compounds of Table 2 exemplify such solubility with “−−” meaning solubility<2 μM, “+” meaning 2 μM solubility 100 μM and “++” meaning solubility

SMILES | IC50 [1] | solubility at 24 h [2]
CC(C)c1onc(-c2c(Cl)cccc2Cl)c1COc1ccc(N(C)C(=O)c2ccc(C(=O)O)cc2)c(C(F)(F)F)n1 [Example 7, N-{6-[3-(2,6-dichloro-phenyl)-5-isopropyl-isoxazol-4-ylmethoxy]-2-trifluoromethyl-pyridin-3-yl}-N-methyl-terephthalamic acid] | ≤ 1000 nM | > 100 µM
CC(C)c1onc(-c2c(Cl)cccc2Cl)c1COc1ccc(N(C)Cc2ccc(C(=O)O)cc2)c(C(F)(F)F)n1 [Example 28, 4(((6-((3-(2,6-Dichlorophenyl)-5-isopropylisoxazol-4-yl)methoxy)-2-(trifluoromethyl)pyridin-3-yl)(methyl)amino)methyl)benzoic acid] | ≤ 1000 nM | –
CC(C)c1onc(-c2c(Cl)cccc2Cl)c1COc1ccc(/C=C/c2cccc(C(=O)O)c2)c(Cl)c1 [Compound B, reference compound] | – | < 2 µM
Cc1nc(OCc2c(-c3c(Cl)cccc3Cl)noc2C(C)C)ccc1N(C)S(=O)(=O)c1ccc(C(=O)O)cc1 [Example 4, 4-(N-(6-((3-(2,6-dichlorophenyl)-5-isopropylisoxazol-4-yl)methoxy)-2-methylpyridin-3-yl)—N-methylsulfamoyl)benzoic acid] | ≤ 1000 nM | > 100 µM
